{
  "source": "patent US8936728B2",
  "about": "“Chemicals for oil spill cleanup” (priority 2010, dated 2015)",
  "test_system": "fresh water minnows",
  "experiment": "Toxicity tests using fresh water minnows",
  "format": "in vivo",
  "conditions": "test water containing 25 ppm; control water without the phosphonium bromide",
  "protocol": "Toxicity tests were conducted using fresh water minnows. The fresh water minnows were placed in test water containing 25 ppm dodecylbenzyldimethyl phosphonium bromide and in a control water sample without the phosphonium bromide.",
  "data": [
    {"smiles": "CCCCCCCCCCCC[P+](C)(C)Cc1ccccc1.[Br-]", "note": "[dodecylbenzyldimethyl phosphonium bromide]", "values": [
      {"measurement": "number of fresh water minnows dying over a given time in the test water versus control", "result": "about the same as in the control"}
    ]}
  ]
}
